Experiments:
[1] = Cu^2+ complexation, potentiometric / spectrophotometric titration; type: physicochemical; conditions: for log β (CumHhLl), species (1–12) / log β (CumHhLl), species (101): UV–Vis (1a, 1d); for pM (Cu^2+), pM = −log [M]: pH 7.4, CL/CM = 10, CM = 10^−6 M
From the text: The chelating ability of FA and of selected compounds 1a and 1d was studied by using the same experimental techniques (potentiometry, UV–Vis spectrophotometry) and experimental medium used for the titration of the ligand alone (20% w/w DMSO/water).
Alterations in the deprotonation profiles of the ligand titration curves due to the presence of the metal ions are evident in Figure 2, since the curves for the M/L systems appear well below that of FA for a > −1 (M = Fe) or a > 0 (M = Cu). This evidence supports the formation of metal complexes with the deprotonated (L^−) and mono-protonated (HL) forms of the ligand, whose stability order (Fe > Cu) follows the expected trend. Equilibrium models obtained from the fitting analysis of the potentiometric curves (M = Fe, Cu) and the UV–Vis spectral data (M = Fe, Cu) are reported in Table 2.
Both compounds 1a and 1d have similar chelating capacities towards iron and copper, which are also analogous to those of FA.
As concerns the metal chelation studies, potassium hydrogen phthalate (C8H5KO4, p.a.) was acquired from BDH, whereas dimethylsulfoxide (DMSO, dried, p.a.) and potassium chloride (KCl, p.a.) were supplied by Sigma-Aldrich. Aqueous solutions of metal ions were prepared starting from 1000 ppm standards (Titrisol, Sigma-Aldrich), to obtain solutions FeCl3 0.018 M and CuCl2 0.015 M. The metal content of solutions was evaluated by atomic absorption. Iron stock solution was prepared with an excess of acid chloride to avoid hydrolysis and its concentration in HCl was determined by the usual standard-addition method using 0.1M HCl (Titrisol). The 0.1M HCl solution, used in calibration of the glass electrode and in spectrophotometric titrations, was prepared from a Titrisol ampoule. The titrant was prepared from carbonate free commercial concentrate (Titrisol, KOH 0.1 M ampoules). The KOH solution was standardized by titration with a solution of potassium hydrogen phthalate using Gran’s method and it was rejected when the percentage of carbonate was greater than 0.5% of the total amount of base. The potentiometric studies were performed with an automated potentiometric apparatus controlled by PASAT program and containing a Crison micropH 2002 millivoltmeter, a Crison microBu 2031 burette and a Haake thermostatic bath (T = 25.0 ± 0.1 °C). The spectrophotometric titrations were carried out with a Perkin-Elmer Lambda 35 spectrophotometer.
Both glass and Ag/AgCl reference electrodes were previously conditioned in different DMSO/H2O mixtures of increasing DMSO % concentration and the response of the glass electrode was evaluated by strong acid–strong base (HCl/KOH) calibrations with the determination of the Nernst parameters by Gran’s method. […] The spectrophotometric measurements were carried out in a 250–450 nm wavelength range at pH ca. 2.5–11.8. Under the stated experimental conditions, the pKw value (14.27) was determined and subsequently used in the computations. The stepwise protonation constants of the ligands, Ki = [HiL]/[Hi-1L][H], and the overall metal complex stability constants, β (MmHhLl) = [MmHhLl]/[M]^m[H]^h[L]^l, were calculated by fitting the pH-potentiometric and spectrophotometric data with, respectively, the Hyperquad 2008 [41] and Psequad programs. The metal hydrolysis model was determined under the defined experimental conditions (I = 0.1 M KCl, 20% w/w DMSO/H2O, T = 25.0 ± 0.1 °C) and the following values of stability constants were included in the fitting of experimental data towards the equilibrium models related to the Fe^3+/L and Cu^2+/L systems: log β (FeH-2) = −6.78, log β (FeH-3) = −10.78; log β (Cu2H-2) = −9.94. The species distribution curves were obtained with the Hyss program.

[2] = molecular target: T1, Aβ1–42 peptide (Homo sapiens, UniProt P05067); assay: Inhibition of self-mediated Aβ1–42 aggregation, Thioflavin T fluorescence assay; type: biochemical; design: Amyloid-β peptide (1–42) was purchased from GeneCust; purchased GeneCust; conditions: compounds 80 μM, without copper; ThT fluorescence; mean of two independent measurements in duplicate; read-out: Inhibition of Aβ1–42 Aggregation (%) Self-Aβ Aggr.
Procedure: (§1) The studied compounds (1a–e) were tested in vitro to evaluate their activity as inhibitors of Aβ1-42 peptide aggregation, through the Thioflavin T (ThT) fluorescence assay. This method is based on the strong ability of the dye ThT to bind β-amyloid fibrils and oligomers through ionic and hydrophobic interactions, while its interaction with β-amyloid monomers is extremely weak. The intercalation of compounds in the β-sheet structure of amyloid protein may prevent fibrils aggregation and ThT binding, and it is evaluated by fluorimetry. The fluorescence emission measurements were performed after overnight incubation of the self-mediated or Cu^2+-induced Aβ fibril aggregates with the studied compounds.
(§2) The inhibition of β-amyloid (Aβ) aggregation was studied through the Th-T fluorescence assay, which was performed using a Varian Cary Eclipse fluorimeter at the following wavelengths: excitation (446 nm) and emission (485 nm). Amyloid-β peptide (1–42) was purchased from GeneCust as lyophilized powder stored at −20 °C.
(§3) The method used is based on thioflavin T (ThT) fluorescence emission, which depends on the interaction of this dye with Aβ fibrils. The assay is performed with the Aβ1–42 peptide sample, which was previously prepared by solubilization of its lyophilized powder in 1,1,1,3,3,3–hexafluoro-2-propanol (HFIP), an organic solvent useful to solubilize and monomerize the β-sheets protein aggregates. After 24 h, the solution was divided into Eppendorf tubes kept in ice, and then, HFIP was left to evaporate overnight (T = 25 °C). The resultant films were stored in the freezer. […] Compounds were dissolved in MeOH (1 mg/mL) and diluted with phosphate buffer to reach a ligand stock solution of 480 μM. Two different types of experiments were prepared in a final volume of 60 μL: control ligand assays (Aβ1–42 aggregation in the absence of inhibitor) and ligand assays (effect of ligand on Aβ1–42 aggregation). For each experiment, a blank sample without Aβ1–42 was used to monitor the effect of the compounds in fluorescence. To study the inhibition of aggregation in the presence of Cu^2+, which is known to promote it, an intermediate stock solution of CuCl2 in phosphate buffer (240 µM) was prepared. Then, it was aliquoted to obtain a final concentration of 40 µM in the samples. All samples were incubated in a water bath for 24 h at 37 °C. Then, 180 µL of ThT (5 µM) in glycine-NaOH buffer (50 mM, pH = 8.5) is added to each solution and 200 µL of it is placed in a 96-well plate (BD Falcon) to be read with the fluorimeter. After 5 min of incubation with ThT, fluorescence was measured at 446 nm (ʎ excitation) and 485 nm (ʎ emission).

[3] = molecular target: T1, Aβ1–42 peptide; assay: Inhibition of Cu^2+-induced Aβ1–42 aggregation, Thioflavin T fluorescence assay; type: biochemical; design: Amyloid-β peptide (1–42) was purchased from GeneCust; purchased GeneCust; conditions: compounds 80 μM, with copper 40 μM; ThT fluorescence; mean of two independent measurements in duplicate; read-out: Inhibition of Aβ1–42 Aggregation (%) Cu-Induced Aβ Aggr.
Procedure: as §1, §2, §3

[4] = T = 25.0 ± 0.1 °C, I = 0.1 M KCl, 20% w/w DMSO/water, pH-potentiometric (FA)

T1 sequence (P05067 672-713): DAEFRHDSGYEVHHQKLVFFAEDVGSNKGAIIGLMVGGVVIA

Row | log β (CumHhLl), species (1–21) ([1]; T = 25.0 ± 0.1 °C, I = 0.1 M KCl, 20% w/w DMSO/water, UV–Vis spectrophotometric data) | log β (CumHhLl), species (1–12) [1, 4] | log β (CumHhLl), species (101) [1, 4] | pM (Cu^2+), pM = −log [M] [1] | inhibition at 80 µM [2] [%] | inhibition at 80 µM [3] [%] | log β (CumHhLl), species (102) ([1]; T = 25.0 ± 0.1 °C, I = 0.1 M KCl, 20% w/w DMSO/water, pH-potentiometric (FA), UV–Vis (1d)) | SMILES
1 | −13.16(7) | 1.12(5) | 6.27(7) | 6.3 | 42.6 | 79.6 |  | COc1cc(/C=C/C(=O)NOCc2ccccc2OC)ccc1O [Compound 1a, (E)-3-(4-hydroxy-3-methoxyphenyl)-N-((2-methoxybenzyl)oxy)acrylamide]
2 |  | 2.20(8) | 7.49(7) | 7.0 | 34.1 | 76.1 | 12.14(7) | COc1cc(/C=C/C(=O)NOCc2cccc(Cl)c2)ccc1O [Compound 1d, (E)-N-((3-chlorobenzyl)oxy)-3-(4-hydroxy-3-methoxyphenyl)acrylamide]

Source: publication PMC8512147, “Multifunctional Small Molecules as Potential Anti-Alzheimer’s Disease Agents” (Molecules, 2021)
